Measurements from ChEMBL document CHEMBL3393036, “Tetra-substituted pyridinylimidazoles as dual inhibitors of p38α mitogen-activated protein kinase and c-Jun N-terminal kinase 3 for potential treatment of neurodegenerative diseases” (J Med Chem, 2015).

Columns and labels:
[1] = target: Mitogen-activated protein kinase kinase kinase 8 (Homo sapiens) (UniProt P41279); test: Inhibition of MAP3K8 (unknown origin) at 5.5 uM by Caliper Mobility Shift Assay
[2] = target: Tyrosine-protein kinase BTK (Homo sapiens) (UniProt Q06187); test: Inhibition of BTK (unknown origin) at 5.5 uM by Caliper Mobility Shift Assay
[3] = species: Homo sapiens; test: Inhibition of PRKACA(PKA) (unknown origin) at 5.5 uM by Caliper Mobility Shift Assay
[4] = target: Serine/threonine-protein kinase WNK1 (Homo sapiens) (UniProt Q9H4A3); test: Inhibition of WNK1 (unknown origin) at 5.5 uM by Caliper Mobility Shift Assay
[5] = target: Mitogen-activated protein kinase 9 (Homo sapiens) (UniProt P45984); test: Inhibition of JNK2 (unknown origin) at 5.5 uM by Caliper Mobility Shift Assay
[6] = target: T1, Tyrosine-protein kinase ZAP-70 (Homo sapiens) (UniProt P43403); test: Inhibition of ZAP70 (unknown origin) at 5.5 uM by Caliper Mobility Shift Assay
T1 sequence (whole entry): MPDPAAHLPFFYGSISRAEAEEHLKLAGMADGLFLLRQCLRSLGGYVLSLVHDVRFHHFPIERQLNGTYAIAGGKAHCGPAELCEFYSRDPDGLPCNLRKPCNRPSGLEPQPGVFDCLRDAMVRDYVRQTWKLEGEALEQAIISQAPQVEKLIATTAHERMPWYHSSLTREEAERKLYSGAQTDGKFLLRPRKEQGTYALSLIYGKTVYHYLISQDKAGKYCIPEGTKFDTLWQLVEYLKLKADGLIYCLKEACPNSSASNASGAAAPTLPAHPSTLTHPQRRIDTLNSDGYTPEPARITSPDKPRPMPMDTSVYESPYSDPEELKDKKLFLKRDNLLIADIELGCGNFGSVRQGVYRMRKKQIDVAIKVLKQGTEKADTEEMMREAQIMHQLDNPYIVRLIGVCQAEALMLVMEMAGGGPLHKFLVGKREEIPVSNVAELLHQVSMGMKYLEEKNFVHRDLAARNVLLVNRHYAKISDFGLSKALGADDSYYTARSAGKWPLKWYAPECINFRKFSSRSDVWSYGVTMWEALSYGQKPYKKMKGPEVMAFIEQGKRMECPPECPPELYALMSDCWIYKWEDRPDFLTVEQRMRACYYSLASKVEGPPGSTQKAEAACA

[7] = target: Mitogen-activated protein kinase kinase kinase kinase 4 (Homo sapiens) (UniProt O95819); test: Inhibition of MAP4K4 (unknown origin) at 5.5 uM by Caliper Mobility Shift Assay
[8] = target: Cyclin-dependent kinase 4/cyclin D1 (Homo sapiens) (UniProt P11802+P24385); test: Inhibition of CDK4D1 (unknown origin) at 5.5 uM by Caliper Mobility Shift Assay; format: protein-complex assay
[9] = target: T2, Aurora kinase A (Homo sapiens) (UniProt O14965); test: Inhibition of AURKA (unknown origin) at 5.5 uM by Caliper Mobility Shift Assay
T2 sequence (whole entry): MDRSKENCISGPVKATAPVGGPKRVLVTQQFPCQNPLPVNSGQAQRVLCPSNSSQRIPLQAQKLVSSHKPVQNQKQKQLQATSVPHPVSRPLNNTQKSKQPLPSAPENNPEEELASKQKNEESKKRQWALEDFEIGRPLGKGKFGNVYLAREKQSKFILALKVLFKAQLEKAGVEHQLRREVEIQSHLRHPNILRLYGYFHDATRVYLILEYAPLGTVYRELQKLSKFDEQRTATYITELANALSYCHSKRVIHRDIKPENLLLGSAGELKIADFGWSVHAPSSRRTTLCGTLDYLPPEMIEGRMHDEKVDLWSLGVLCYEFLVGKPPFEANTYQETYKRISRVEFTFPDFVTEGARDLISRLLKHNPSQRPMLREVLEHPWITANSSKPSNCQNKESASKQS

[10] = target: T3, Serine/threonine-protein kinase 17B (Homo sapiens) (UniProt O94768); test: Inhibition of STK17B (unknown origin) at 5.5 uM by Caliper Mobility Shift Assay
T3 sequence (whole entry): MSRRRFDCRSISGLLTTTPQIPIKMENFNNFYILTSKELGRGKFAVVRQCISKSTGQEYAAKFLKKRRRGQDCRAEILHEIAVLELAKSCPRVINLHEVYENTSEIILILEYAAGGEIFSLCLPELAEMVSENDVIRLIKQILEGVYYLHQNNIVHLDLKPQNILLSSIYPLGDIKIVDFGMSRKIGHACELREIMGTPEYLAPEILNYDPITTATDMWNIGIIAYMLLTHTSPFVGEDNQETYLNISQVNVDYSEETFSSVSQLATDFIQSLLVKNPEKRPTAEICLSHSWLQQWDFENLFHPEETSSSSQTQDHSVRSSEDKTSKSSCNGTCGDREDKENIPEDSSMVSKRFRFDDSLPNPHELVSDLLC

[11] = target: Protein kinase C alpha type (Homo sapiens) (UniProt P17252); test: Inhibition of PRKCA (unknown origin) at 5.5 uM by Caliper Mobility Shift Assay
[12] = target: Hepatocyte growth factor receptor (Homo sapiens) (UniProt P08581); test: Inhibition of MET (unknown origin) at 5.5 uM by Caliper Mobility Shift Assay

Measured: inhibition

Mitogen-activated protein kinase kinase kinase kinase 4 (Homo sapiens), sequence (O95819 2-1239 limits assumed): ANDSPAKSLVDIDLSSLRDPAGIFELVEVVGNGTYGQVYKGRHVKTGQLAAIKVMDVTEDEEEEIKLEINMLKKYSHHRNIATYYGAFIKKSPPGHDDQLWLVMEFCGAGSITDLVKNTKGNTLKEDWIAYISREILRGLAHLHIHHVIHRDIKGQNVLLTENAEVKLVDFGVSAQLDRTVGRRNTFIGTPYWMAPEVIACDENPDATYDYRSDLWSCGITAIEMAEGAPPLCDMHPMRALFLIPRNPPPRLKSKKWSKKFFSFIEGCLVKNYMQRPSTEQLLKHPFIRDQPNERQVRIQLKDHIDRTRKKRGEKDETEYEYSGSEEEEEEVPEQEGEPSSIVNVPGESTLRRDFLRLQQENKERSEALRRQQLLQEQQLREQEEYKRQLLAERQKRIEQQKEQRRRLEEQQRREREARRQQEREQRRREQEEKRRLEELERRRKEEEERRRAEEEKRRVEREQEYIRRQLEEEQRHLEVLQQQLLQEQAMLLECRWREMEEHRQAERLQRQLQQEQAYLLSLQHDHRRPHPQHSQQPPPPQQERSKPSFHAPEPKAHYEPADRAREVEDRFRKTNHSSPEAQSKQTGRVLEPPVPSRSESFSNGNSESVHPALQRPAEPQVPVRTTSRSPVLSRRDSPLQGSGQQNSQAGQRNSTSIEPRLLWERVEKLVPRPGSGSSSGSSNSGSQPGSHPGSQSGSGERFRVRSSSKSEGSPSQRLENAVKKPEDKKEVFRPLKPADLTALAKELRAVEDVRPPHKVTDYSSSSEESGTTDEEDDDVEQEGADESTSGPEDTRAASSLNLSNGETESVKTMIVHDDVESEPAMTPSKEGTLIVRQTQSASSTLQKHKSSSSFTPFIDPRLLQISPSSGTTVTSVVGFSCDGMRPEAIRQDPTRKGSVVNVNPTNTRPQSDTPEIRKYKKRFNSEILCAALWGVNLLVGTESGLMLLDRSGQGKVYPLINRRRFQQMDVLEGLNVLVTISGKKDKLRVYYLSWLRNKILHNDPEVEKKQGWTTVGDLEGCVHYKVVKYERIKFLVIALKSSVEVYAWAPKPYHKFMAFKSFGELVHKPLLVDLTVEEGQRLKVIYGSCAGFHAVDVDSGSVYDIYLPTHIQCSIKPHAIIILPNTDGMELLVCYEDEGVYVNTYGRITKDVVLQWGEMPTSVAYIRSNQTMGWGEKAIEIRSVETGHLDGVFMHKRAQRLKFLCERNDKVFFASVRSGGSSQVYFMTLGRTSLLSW
Hepatocyte growth factor receptor (Homo sapiens), sequence (P08581 whole entry): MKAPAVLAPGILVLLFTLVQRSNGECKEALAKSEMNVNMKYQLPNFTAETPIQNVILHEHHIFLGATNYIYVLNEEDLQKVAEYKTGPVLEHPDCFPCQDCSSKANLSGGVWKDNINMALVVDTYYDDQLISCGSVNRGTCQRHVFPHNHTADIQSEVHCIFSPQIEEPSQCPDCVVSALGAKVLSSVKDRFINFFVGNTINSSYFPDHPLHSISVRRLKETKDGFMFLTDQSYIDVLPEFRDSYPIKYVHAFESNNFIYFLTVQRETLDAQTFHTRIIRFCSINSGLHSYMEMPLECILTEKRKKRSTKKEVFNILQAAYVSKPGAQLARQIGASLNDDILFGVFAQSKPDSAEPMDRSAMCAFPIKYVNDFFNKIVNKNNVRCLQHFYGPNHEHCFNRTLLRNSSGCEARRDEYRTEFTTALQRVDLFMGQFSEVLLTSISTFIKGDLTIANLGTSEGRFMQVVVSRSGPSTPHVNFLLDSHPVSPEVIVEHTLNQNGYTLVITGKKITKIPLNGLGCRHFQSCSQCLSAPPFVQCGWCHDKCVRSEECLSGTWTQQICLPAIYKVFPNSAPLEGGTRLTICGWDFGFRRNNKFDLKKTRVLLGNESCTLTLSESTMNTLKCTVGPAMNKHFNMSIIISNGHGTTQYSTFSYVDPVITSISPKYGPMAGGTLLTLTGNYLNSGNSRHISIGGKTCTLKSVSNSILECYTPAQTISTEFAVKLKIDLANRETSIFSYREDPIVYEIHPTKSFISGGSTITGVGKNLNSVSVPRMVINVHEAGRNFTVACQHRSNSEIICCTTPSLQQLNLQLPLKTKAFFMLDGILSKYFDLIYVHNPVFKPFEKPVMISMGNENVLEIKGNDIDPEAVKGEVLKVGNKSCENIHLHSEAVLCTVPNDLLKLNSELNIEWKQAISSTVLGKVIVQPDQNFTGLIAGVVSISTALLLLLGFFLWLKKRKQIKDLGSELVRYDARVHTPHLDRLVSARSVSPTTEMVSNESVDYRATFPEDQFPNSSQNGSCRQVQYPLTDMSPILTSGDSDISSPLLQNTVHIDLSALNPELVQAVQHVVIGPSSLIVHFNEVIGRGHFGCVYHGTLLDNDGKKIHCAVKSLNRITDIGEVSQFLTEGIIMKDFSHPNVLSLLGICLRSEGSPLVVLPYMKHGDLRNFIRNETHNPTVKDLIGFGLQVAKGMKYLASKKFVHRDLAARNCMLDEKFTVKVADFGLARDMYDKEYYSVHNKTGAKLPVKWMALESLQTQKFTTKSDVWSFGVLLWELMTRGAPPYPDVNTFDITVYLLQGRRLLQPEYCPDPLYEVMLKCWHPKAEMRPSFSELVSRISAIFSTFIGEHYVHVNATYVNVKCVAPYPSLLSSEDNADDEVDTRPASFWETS
Mitogen-activated protein kinase kinase kinase 8 (Homo sapiens), sequence (P41279 whole entry): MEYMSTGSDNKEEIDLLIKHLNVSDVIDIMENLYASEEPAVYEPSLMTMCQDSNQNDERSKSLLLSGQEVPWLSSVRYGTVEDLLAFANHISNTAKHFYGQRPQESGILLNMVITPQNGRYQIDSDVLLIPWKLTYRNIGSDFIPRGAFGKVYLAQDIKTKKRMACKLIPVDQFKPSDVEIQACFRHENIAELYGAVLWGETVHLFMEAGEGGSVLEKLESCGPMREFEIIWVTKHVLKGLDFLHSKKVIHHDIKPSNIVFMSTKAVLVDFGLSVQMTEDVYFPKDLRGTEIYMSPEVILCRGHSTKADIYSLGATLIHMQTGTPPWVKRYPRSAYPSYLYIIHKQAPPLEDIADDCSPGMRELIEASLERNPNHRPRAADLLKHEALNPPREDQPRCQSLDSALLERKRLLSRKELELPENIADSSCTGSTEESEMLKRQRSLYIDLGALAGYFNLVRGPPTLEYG
Tyrosine-protein kinase BTK (Homo sapiens), sequence (Q06187 whole entry): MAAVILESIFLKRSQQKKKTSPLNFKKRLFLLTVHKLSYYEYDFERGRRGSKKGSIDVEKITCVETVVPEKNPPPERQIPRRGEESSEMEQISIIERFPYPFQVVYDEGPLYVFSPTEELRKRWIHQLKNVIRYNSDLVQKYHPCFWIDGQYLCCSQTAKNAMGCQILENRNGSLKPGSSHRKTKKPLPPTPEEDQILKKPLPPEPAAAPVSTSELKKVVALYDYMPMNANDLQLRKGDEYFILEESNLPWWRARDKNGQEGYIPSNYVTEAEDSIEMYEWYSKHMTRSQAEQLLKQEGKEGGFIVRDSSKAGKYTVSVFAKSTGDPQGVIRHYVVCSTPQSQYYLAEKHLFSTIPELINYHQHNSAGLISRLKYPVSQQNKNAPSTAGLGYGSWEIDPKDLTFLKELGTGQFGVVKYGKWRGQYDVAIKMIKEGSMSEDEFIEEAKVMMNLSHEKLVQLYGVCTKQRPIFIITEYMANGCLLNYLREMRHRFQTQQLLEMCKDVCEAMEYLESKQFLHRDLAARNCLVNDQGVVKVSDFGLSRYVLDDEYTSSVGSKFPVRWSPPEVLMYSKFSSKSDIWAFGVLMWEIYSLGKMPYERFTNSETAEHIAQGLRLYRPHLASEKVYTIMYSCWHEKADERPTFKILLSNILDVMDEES
Mitogen-activated protein kinase 9 (Homo sapiens), sequence (P45984 whole entry, looked up): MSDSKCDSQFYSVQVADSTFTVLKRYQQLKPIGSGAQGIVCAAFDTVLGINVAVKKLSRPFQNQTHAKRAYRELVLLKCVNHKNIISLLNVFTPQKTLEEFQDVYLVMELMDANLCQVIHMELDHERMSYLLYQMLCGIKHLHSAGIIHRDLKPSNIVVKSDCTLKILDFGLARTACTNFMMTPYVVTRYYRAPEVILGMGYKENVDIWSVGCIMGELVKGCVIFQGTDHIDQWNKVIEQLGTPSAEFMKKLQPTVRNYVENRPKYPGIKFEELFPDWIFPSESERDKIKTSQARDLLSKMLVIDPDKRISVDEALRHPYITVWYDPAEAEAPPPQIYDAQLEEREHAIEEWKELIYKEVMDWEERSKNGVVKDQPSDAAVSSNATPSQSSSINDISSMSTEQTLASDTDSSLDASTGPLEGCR

CC(=O)Nc1cc(-c2c(-c3ccc(F)cc3)nc(S/C=C\C(=O)O)n2CC2CCCO2)ccn1 (racemic)
< 50%: all assays above

CC(=O)Nc1cc(-c2c(-c3ccc(F)cc3)nc(S/C=C\C(=O)O)n2C2CC2)ccn1
< 50%: all assays above

CC(=O)Nc1cc(-c2c(-c3ccc(F)cc3)nc(S/C=C\C(=O)O)n2C2CCCCC2)ccn1
< 50%: all assays above

CC(=O)Nc1cc(-c2c(-c3ccc(F)cc3)nc(Sc3cccc(I)n3)n2C2CCCCC2)ccn1
< 50%: all assays above

COC(Cn1c(SC2CCC(C(=O)O)CC2O)nc(-c2ccc(F)cc2)c1-c1ccnc(NC(C)=O)c1)OC (stereo not given)
< 50%: all assays above
